The source of these data is patent US10160743B2, “Sulphamoylthiophenamide derivatives and the use thereof as medicaments for the treatment of hepatitis B” (Janssen Sciences Ireland UC, priority 2013, dated 2018).

Molecules are shown by their SMILES.

Data set [1] deals with HBV. Nature of the data set: Anti-HBV activity, HepG2.2.15 cell line, HBV DNA from secreted virions by realtime PCR. Type of data set: cell-based, Hepatitis B virus. The conditions noted are these: HepG2.2.15 cells, 6 days of treatment.
Data set [2] relates to HBV. Description: Anti-HBV activity, HepG2.117 cell line (Tet-off), intracellular HBV DNA by realtime PCR. It is filed as cell-based, Hepatitis B virus. The conditions noted are these: HepG2.117 cells, 3 days of treatment.
Data set [3] in a line: Cytotoxicity in HepG2 cells, Resazurin assay. Type of data set: cell-based. The conditions noted are these: human, incubated for 4 days, Resazurin viability. (Resazurin is reduced to fluorescent resorufin, in cell work by metabolically active cells.)
Where [4] appears, read: Hepatitis B virus, HepG2.2.15, 144 h.
The mark [5] stands for this setting: Hepatitis B virus, HepG2.117, 72 h.

On to `Cc1cc(NC(=O)c2cc(S(=O)(=O)NC3(C)CCOC3)sc2C)ccc1F` (racemic) [Compound 16, N-(4-fluoro-3-methyl-phenyl)-2-methyl-5-[(3-methyltetrahydrofuran-3-yl)sulfamoyl]thiophene-3-carboxamide], for which the concentration for a half-maximal effect (EC50) stood at 54 nM in data set [1] and 48 nM in data set [2]. The compound further displayed a CC50 at 4 days in data set [3] greater than 25000 nM.
For the compound `Cc1sc(S(=O)(=O)NC2(C(F)(F)F)CCOC2)cc1C(=O)Nc1cccc(C(F)(F)F)c1` (racemic) [Compound 41, 2-methyl-N-[3-(trifluoromethyl)phenyl]-5-[[3-(trifluoromethyl)tetrahydrofuran-3-yl]sulfamoyl]thiophene-3-carboxamide], the EC50 in data set [1] (setting [4]) was 550 nM; in data set [2] (setting [5]), greater than 1000 nM. In data set [3], this compound yielded a CC50 at 4 days greater than 25000 nM.
For `Cc1sc(S(=O)(=O)NC2(C(F)(F)F)CCOC2)cc1C(=O)Nc1ccc(F)c(C#N)c1` (racemic) [Compound 54, N-(3-cyano-4-fluoro-phenyl)-2-methyl-5-[[3-(trifluoromethyl)tetrahydrofuran-3-yl]sulfamoyl]thiophene-3-carboxamide] the same measures were 180 nM, 100 nM and greater than 25000 nM.
Consider `Cc1cc(NC(=O)c2csc(S(=O)(=O)N[C@H]3CCOC3)c2)ccc1F` [Compound 1, N-(4-fluoro-3-methyl-phenyl)-5-[[(3S)-tetrahydrofuran-3-yl]sulfamoyl]thiophene-3-carboxamide], for which the EC50 in data set [1] (setting [4]) amounted to 170 nM; in data set [2] (setting [5]), 320 nM. The compound further returned a CC50 at 4 days in data set [3] greater than 25000 nM.
The like results for `Cc1cc(NC(=O)c2cc(S(=O)(=O)N[C@H]3CCOC3)sc2Br)ccc1F` [Compound 2, 2-bromo-N-(4-fluoro-3-methyl-phenyl)-5-[[(3S)-tetrahydrofuran-3-yl]-sulfamoyl]thiophene-3-carboxamide] were, in that order, 810 nM, 1900 nM and greater than 25000 nM.
For `Cc1cc(NC(=O)c2cc(S(=O)(=O)N[C@H](C)CO)sc2Cl)ccc1F` [Compound 3, 2-chloro-N-(4-fluoro-3-methyl-phenyl)-5-[[(1R)-2-hydroxy-1-methyl-ethyl]sulfamoyl]thiophene-3-carboxamide] the same measures were 210 nM, 340 nM and greater than 25000 nM.
The like results for `Cc1cc(NC(=O)c2cc(S(=O)(=O)N[C@H]3CCOC3)sc2Cl)ccc1F` [Compound 4, 2-chloro-N-(4-fluoro-3-methyl-phenyl)-5-[[(3S)-tetrahydrofuran-3-yl]-sulfamoyl]thiophene-3-carboxamide] were, in that order, 570 nM, 560 nM and greater than 25000 nM.
Take `Cc1cc(NC(=O)c2cc(S(=O)(=O)N[C@H]3CCOC3)sc2C(F)(F)F)ccc1F` [Compound 5, N-(4-fluoro-3-methyl-phenyl)-5-[[(3S)-tetrahydrofuran-3-yl]sulfamoyl]-2-(trifluoromethyl)thiophene-3-carboxamide]: the EC50 in data set [1] (setting [4]) was found to be 1670 nM; in data set [2] (setting [5]) it was 1180 nM. Further, the CC50 at 4 days in data set [3] was greater than 25000 nM.
For `Cc1cc(NC(=O)c2cc(S(=O)(=O)N[C@H]3CCOC3)sc2C2CC2)ccc1F` [Compound 6, 2-cyclopropyl-N-(4-fluoro-3-methyl-phenyl)-5-[[(3S)-tetrahydrofuran-3-yl]sulfamoyl]thiophene-3-carboxamide] the same measures were 580 nM, 680 nM and greater than 25000 nM.
The like results for `Cc1cc(NC(=O)c2cc(S(=O)(=O)N[C@H]3CCOC3)sc2C)ccc1F` [Compound 7, N-(4-fluoro-3-methyl-phenyl)-2-methyl-5-[[(3S)-tetrahydrofuran-3-yl]-sulfamoyl]thiophene-3-carboxamide] were, in that order, 170 nM, 160 nM and greater than 25000 nM.
For `Cc1cc(NC(=O)c2cc(S(=O)(=O)N[C@H]3CCOC3)cs2)ccc1F` [Compound 8, N-(4-fluoro-3-methyl-phenyl)-4-[[(3S)-tetrahydrofuran-3-yl]sulfamoyl]thiophene-2-carboxamide] the same measures were 100 nM, 160 nM and greater than 25000 nM.
`Cc1cc(NC(=O)c2cc(S(=O)(=O)N[C@H]3CCOC3)c(C)s2)ccc1F` [Compound 9, N-(4-fluoro-3-methyl-phenyl)-5-methyl-4-[[(3S)-tetrahydrofuran-3-yl]-sulfamoyl]thiophene-2-carboxamide]: the EC50 came to 790 nM in data set [1] (setting [4]) and 1100 nM in data set [2] (setting [5]). The CC50 at 4 days in data set [3] is greater than 25000 nM.
For `Cc1cc(NC(=O)c2cc(S(=O)(=O)NC3(C)COC3)c(C)s2)ccc1F` [Compound 10, N-(4-fluoro-3-methyl-phenyl)-5-methyl-4-[(3-methyloxetan-3-yl)-sulfamoyl]thiophene-2-carboxamide], the figures for the EC50 in data set [1] (setting [4]) and in data set [2] (setting [5]) were 430 nM and 560 nM, respectively. This compound returned a CC50 at 4 days in data set [3] greater than 25000 nM.
The like results for `Cc1cc(NC(=O)c2scc(S(=O)(=O)N[C@H]3CCOC3)c2C)ccc1F` [Compound 11, N-(4-fluoro-3-methyl-phenyl)-3-methyl-4-[[(3S)-tetrahydrofuran-3-yl]-sulfamoyl]thiophene-2-carboxamide] were, in that order, 190 nM, 310 nM and greater than 25000 nM.
For `Cc1cc(NC(=O)c2scc(S(=O)(=O)NC3(C)COC3)c2C)ccc1F` [Compound 12, N-(4-fluoro-3-methyl-phenyl)-3-methyl-4-[(3-methyloxetan-3-yl)-sulfamoyl]thiophene-2-carboxamide] the same measures were 160 nM, 190 nM and greater than 25000 nM.
For `Cc1cc(NC(=O)c2ccc(S(=O)(=O)N[C@H]3CCOC3)s2)ccc1F` [Compound 13, N-(4-fluoro-3-methyl-phenyl)-5-[[(3S)-tetrahydrofuran-3-yl]-sulfamoyl]thiophene-2-carboxamide] the same measures were 1700 nM, 940 nM and greater than 25000 nM.
Turning to `CCc1sc(S(=O)(=O)N[C@H]2CCOC2)cc1C(=O)Nc1ccc(F)c(C)c1` [Compound 14, 2-ethyl-N-(4-fluoro-3-methyl-phenyl)-5-[[(3S)-tetrahydrofuran-3-yl]-sulfamoyl]thiophene-3-carboxamide], the results for the EC50 in data set [1] (setting [4]) and in data set [2] (setting [5]) were 630 nM and 130 nM, respectively. Further, the half-maximal cytotoxic concentration (CC50) at 4 days in data set [3] is greater than 25000 nM.
The like results for `Cc1cc(NC(=O)c2cc(S(=O)(=O)NC3(C)COC3)sc2C)ccc1F` [Compound 15, N-(4-fluoro-3-methyl-phenyl)-2-methyl-5-[(3-methyloxetan-3-yl)-sulfamoyl]thiophene-3-carboxamide] were, in that order, 27 nM, 160 nM and greater than 25000 nM.
The like results for `Cc1sc(S(=O)(=O)NC(C)(C)C)cc1C(=O)Nc1ccc(F)c(F)c1` [Compound 17, 5-(tert-butylsulfamoyl)-N-(3,4-difluorophenyl)-2-methyl-thiophene-3-carboxamide] were, in that order, 120 nM, 130 nM and 11700 nM.
For `CC[C@@H](C)NS(=O)(=O)c1cc(C(=O)Nc2ccc(F)c(F)c2)c(C)s1` [Compound 18, N-(3,4-difluorophenyl)-2-methyl-5-[[(1R)-1-methylpropyl]sulfamoyl]thiophene-3-carboxamide] the same measures were 65 nM, 82 nM and 14600 nM.
With `Cc1sc(S(=O)(=O)NC2(C)COC2)cc1C(=O)Nc1cc(F)c(F)c(Cl)c1` [Compound 19, N-(3-chloro-4,5-difluoro-phenyl)-2-methyl-5-[(3-methyloxetan-3-yl)-sulfamoyl]thiophene-3-carboxamide], the half-maximal effective concentration (EC50) in data set [1] (setting [4]) is 63 nM; in data set [2] (setting [5]), 100 nM. In addition, in data set [3], the CC50 at 4 days is greater than 25000 nM.
The like results for `Cc1sc(S(=O)(=O)NC(C)(C)C)cc1C(=O)Nc1cc(F)c(F)c(Cl)c1` [Compound 20, 5-(tert-Butylsulfamoyl)-N-(3-chloro-4,5-difluorophenyl)-2-methylthiophene-3-carboxamide] were, in that order, 170 nM, 110 nM and 15900 nM.
In the case of `Cc1sc(S(=O)(=O)NC(C)(C)C)cc1C(=O)Nc1cccc(C(F)(F)F)c1` [Compound 21, 5-(tert-butylsulfamoyl)-2-methyl-N-[3-(trifluoromethyl)phenyl]thiophene-3-carboxamide], the values for the EC50 in data set [1] (setting [4]) and in data set [2] (setting [5]) were 320 nM and greater than 1000 nM, respectively. In data set [3], this compound had a CC50 at 4 days of 10500 nM.
`Cc1sc(S(=O)(=O)NC2(C)COC2)cc1C(=O)Nc1cccc(C(F)(F)F)c1` [Compound 22, 2-methyl-5-[(3-methyloxetan-3-yl)sulfamoyl]-N-[3-(trifluoromethyl)-phenyl]thiophene-3-carboxamide]: the EC50 stood at 250 nM in data set [1] (setting [4]) and 230 nM in data set [2] (setting [5]). In addition, the CC50 at 4 days in data set [3] was greater than 25000 nM.
In the case of `Cc1cc(NC(=O)c2cc(S(=O)(=O)NC(C)(C)C)sc2C)cc(F)c1F` [Compound 23, 5-(tert-Butylsulfamoyl)-N-(3,4-difluoro-5-methylphenyl)-2-methylthiophene-3-carboxamide], the figures for the EC50 in data set [1] (setting [4]) and in data set [2] (setting [5]) were 110 nM and 32 nM, respectively. In addition, in data set [3], the CC50 at 4 days amounted to 18100 nM.
The like results for `Cc1sc(S(=O)(=O)NC(C)(C)C)cc1C(=O)Nc1ccc(F)c(C#N)c1` [Compound 24, 5-(tert-Butylsulfamoyl)-N-(3-cyano-4-fluorophenyl)-2-methylthiophene-3-carboxamide] were, in that order, 120 nM, 150 nM and greater than 25000 nM.
Take `Cc1sc(S(=O)(=O)NC(C)(C)C(F)(F)F)cc1C(=O)Nc1cc(F)c(F)c(Cl)c1` [Compound 40, N-(3-chloro-4,5-difluoro-phenyl)-2-methyl-5-[(2,2,2-trifluoro-1,1-dimethyl-ethyl)sulfamoyl]thiophene-3-carboxamide]: the EC50 in data set [2] (setting [5]) was determined as 500 nM. Besides, the CC50 at 4 days in data set [3] was greater than 25000 nM.

A word on the EC50: it is the midpoint of the concentration-response curve. The CC50 is the concentration that lowers cell viability or growth by half. Read a high CC50 as better tolerance by the cells.
